Data taken from publication PMC3760305, “Mimicking Protein–Protein Interactions through Peptide–Peptide Interactions: HIV-1 gp120 and CXCR4” (Frontiers in Immunology, 2013).
“Also recorded” adds a separate entry of the source.

Assays:
[1] = molecular target: T1, CXCR4 mimetic peptide CX4-M1 (Homo sapiens, UniProt P61073); test: SPR: binding of V3 loop peptides to captured CX4-M1; details: SPR Biacore X100; CX4-M1 (2 μM) bound to streptavidin; V3 loop peptides 5–0.3 μM; HBS-N pH 7.4, 0.05% Tween 20, 100 mM MgCl2
Description: (§2) All measurements were performed using a Biacore X100 instrument in conjunction with the Biotin CAPture Kit (both from GE Healthcare). Sensor chip CAP was hybridized with a 1:10 dilution of CAPture reagent (streptavidin conjugate) in running buffer. […] For dehybridization, a regeneration solution of 6 M guanidinium chloride and 250 mM sodium hydroxide was used. HBS-N buffer (10 mM HEPES, 150 mM sodium chloride, pH 7.4) containing 0.05% Tween 20, as well as 100 mM (V3 loop peptides) or 2.5 mM (gp120) magnesium chloride, was used as running buffer. Measurement and data evaluation was performed using Biacore X100 Control Software (Version 2.0) and Biacore X100 Evaluation Software (Version 2.0), respectively.

[2] = molecular target: T1, CXCR4 mimetic peptide CX4-M1; test: Direct ELISA: fluoresceinylated V3 loop peptides binding to CX4-M1; details: for effect of alanine substitution in V3HxBc2 on binding to CX4-M1: direct ELISA, relative to V3HxBc2; for binding of V3 loop peptide to CX4-M1 (direct ELISA): CX4-M1 0.5 μM on streptavidin plate, fluoresceinylated V3 loop peptides 250 or 100 nM, 3 h, absorbance 492 nm
Description: (§1) High binding microtiter plates (Immulon 2HB) were coated overnight at 4°C with streptavidin (4 μg/mL) in 0.1 M sodium carbonate buffer pH 9.5. Unspecific binding was blocked with 1% BSA in 0.1 M phosphate buffer pH 7.2, 200 μL/well for 1 h. All following steps were performed using 0.1 M phosphate buffer pH 7.2 containing 1% BSA (ELISA with V3 loop peptides) and 0.1% BSA (ELISA with gp120), respectively, as well as 0.01% Tween 20. Plates were incubated with 100 μL CX4-M1 variants (0.5 μM for binding to V3 loop peptides, 2.5 μM for binding to gp120), or biotin alone as a blank, for 2 h. Plates were then incubated for 3 h with fluoresceinylated V3 loop peptides (250 or 100 nM), or gp120 (8.3 nM, either with or without 8.3 nM sCD4). V3 loop peptides were detected using 100 μL/well mouse anti-fluorescein-HRP conjugate from antibodies online (3 μg/mL) for 1 h. Gp120 was detected using a two antibody system. Sheep anti-gp120 (D7324) from Aalto Bio Reagents (0.2 μg/mL) was added for 1 h, followed by a 1 h incubation with rabbit anti-sheep-HRP conjugate from Dianova (3 μg/mL), 100 μL/well. Plates were washed four times with 0.01% Tween 20 in 0.1 M phosphate buffer pH 7.2 (300 μL/well) after each incubation step. Plates were developed with 100 μL/well OPD (1 mg/mL) in the presence of 0.03% H2O2 for approximately 1.5 min (V3 loop peptide detection), or 3.5 min (gp120 detection) in the dark. After the reaction was stopped with 50 μL/well 2 M H2SO4, absorbances were read at 492 nm and corrected for the blank (sample with biotin instead of CX4-M1). All data points present means of at least duplicates.

V3 loop peptide V3HxBc2 = test: Direct ELISA: CX4-M1 variants binding to V3 loop peptide; parameters: species or system HIV-1; details: variants 0.5 μM, fluoresceinylated V3HxBc2, relative to CX4-M1
Description: as §1

gp120HxBc2 [3] = molecular target: T2, gp120HxBc2 (Human immunodeficiency virus type 1 group M subtype B, UniProt P04578); type: binding, HIV-1; details: direct ELISA; variants 2.5 μM; gp120 8.3 nM in the presence of sCD4; relative to CX4-M1
T2 construct: gp120MN, gp120ADA, and gp120HxBc2 from Immune Technology; purchased Immune Technology
Description: as §1

gp120HxBc2 [4] = molecular target: T2, gp120HxBc2; test: SPR: binding of gp120 to captured CX4-M1; parameters: species or system HIV-1
Description: as §2

gp120MN = molecular target: T3, gp120MN (Human immunodeficiency virus type 1 group M subtype B, UniProt P05877); test: SPR: binding of gp120 to captured CX4-M1; parameters: species or system HIV-1
T3 construct: gp120MN, gp120ADA, and gp120HxBc2 from Immune Technology; purchased Immune Technology
Description: as §2

Compound: Yc-X-G-X-CTRPNNNTRKSIHI–GPGRALYTTGEIIGDIRQAHC-NH2 (disulfide) [Peptide V3BAL, fluoresceinylated peptide presenting the V3 loop of gp120 from R5-tropic HIV-1 BAL]
- KD (V3 loop peptide) to CX4-M1 [1]: No binding

Compound: Fluo-X-G-X-CTRPNNNTRKRIRIQRGPGRAAVTIGKIGNMRQAHC-NH2 (disulfide) [V3HxBc2 F317A, alanine scan variant of V3HxBc2]
- effect of alanine substitution in V3HxBc2 on binding to CX4-M1 [2]: strongly diminished binding

Compound: Fluo-X-G-X-CTRPNNNTRKRIRAQRGPGRAFVTIGKIGNMRQAHC-NH2 (disulfide) [V3HxBc2 I309A, alanine scan variant of V3HxBc2]
- effect of alanine substitution in V3HxBc2 on binding to CX4-M1 [2]: strongly diminished binding

Compound: Fluo-X-G-X-CTRPNNNTRKRIRIQRGPGRAFATIGKIGNMRQAHC-NH2 (disulfide) [V3HxBc2 V318A, alanine scan variant of V3HxBc2]
- effect of alanine substitution in V3HxBc2 on binding to CX4-M1 [2]: strongly diminished binding

Compound: Ac-ECL1-X-B-X-DRYICDRFYPNDLWA-X-B-X-ECL3-X-K(Bio)-NH2 (disulfide) [CX4-M1 V196A, alanine substitution variant of ECL2 of CX4-M1]
- effect of alanine substitution in ECL2 of CX4-M1 on binding to V3HxBc2 (V3 loop peptide V3HxBc2): enhancement of binding

Compound: Fluo-X-G-X-CTRPNNNTRKSIHI–GPGRAFYTTGEIIGDIRQAHC-NH2 (disulfide) [Peptide V3ADA, fluoresceinylated peptide presenting the V3 loop of gp120 from R5-tropic HIV-1 ADA]
- KD (V3 loop peptide) to CX4-M1 [1]: No binding

Compound: Fluo-X-G-X-CTRPNNNTRKRIAIQRGPGRAFVTIGKIGNMRQAHC-NH2 (disulfide) [V3HxBc2 R308A, alanine scan variant of V3HxBc2]
- effect of alanine substitution in V3HxBc2 on binding to CX4-M1 [2]: strongly diminished binding

Compound: Ac-ECL1-X-B-X-DRYICDRFYPNDAWV-X-B-X-ECL3-X-K(Bio)-NH2 (disulfide) [CX4-M1 L194A, alanine substitution variant of ECL2 of CX4-M1]
- effect of alanine substitution in ECL2 of CX4-M1 on binding to gp120HxBc2 (gp120HxBc2 [3]): negative effect on the affinity; also recorded: attenuated binding
- effect of alanine substitution in ECL2 of CX4-M1 on binding to V3HxBc2 (V3 loop peptide V3HxBc2): enhancement of binding

Compound: Ac-ECL1-X-B-X-DRYICDRFAPNDLWV-X-B-X-ECL3-X-K(Bio)-NH2 (disulfide) [CX4-M1 Y190A, alanine substitution variant of ECL2 of CX4-M1]
- effect of alanine substitution in ECL2 of CX4-M1 on binding to gp120HxBc2 (gp120HxBc2 [3]): attenuated binding
- effect of alanine substitution in ECL2 of CX4-M1 on binding to V3HxBc2 (V3 loop peptide V3HxBc2): enhancement of binding

Compound: Fluo-X-G-X––––-C^dRIRIQRGPGRAFVTIC^d–––––-NH2 (disulfide) [V3HxBc2 turn/beta, truncated variant of V3HxBc2 presenting the turn region and the two beta strands]
- binding of V3 loop peptide to CX4-M1 (direct ELISA) [2]: retained some of the affinity

Compound: Ac-ECL1-X-B-X-DRAICDRFYPNDLWV-X-B-X-ECL3-X-K(Bio)-NH2 (disulfide) [CX4-M1 Y184A, alanine substitution variant of ECL2 of CX4-M1]
- effect of alanine substitution in ECL2 of CX4-M1 on binding to gp120HxBc2 (gp120HxBc2 [3]): attenuated binding
- effect of alanine substitution in ECL2 of CX4-M1 on binding to V3HxBc2 (V3 loop peptide V3HxBc2): enhancement of binding

Compound: CC[C@H](C)[C@@H]1NC(=O)[C@H](Cc2ccc(O)cc2)NC(=O)[C@H](CCCNC(=N)N)NC(=O)[C@H](CC(=O)O)NC(=O)CCCCCNC(=O)CCNC(=O)CCCCCNC(=O)[C@H](CCCCN)NC(=O)[C@@H](NC(=O)[C@H](CC(C)C)NC(=O)[C@H](Cc2ccccc2)NC(=O)[C@H](CC(N)=O)NC(=O)CNC(=O)[C@H](Cc2ccccc2)NC(=O)[C@H](Cc2ccc(O)cc2)NC(=O)[C@H](Cc2c[nH]c3ccccc23)NC(=O)[C@H](CC(N)=O)NC(=O)[C@H](C)NC(=O)[C@@H](NC(=O)[C@H](C)NC(=O)[C@H](CC(=O)O)NC(C)=O)C(C)C)CSSC[C@@H](C(=O)N[C@@H](CC(=O)O)C(=O)N[C@@H](CCCNC(=N)N)C(=O)N[C@@H](Cc2ccccc2)C(=O)N[C@@H](Cc2ccc(O)cc2)C(=O)N2CCC[C@H]2C(=O)N[C@@H](CC(N)=O)C(=O)N[C@@H](CC(=O)O)C(=O)N[C@@H](CC(C)C)C(=O)N[C@@H](Cc2c[nH]c3ccccc23)C(=O)N[C@H](C(=O)NCCCCCC(=O)NCCC(=O)NCCCCCC(=O)N[C@@H](CC(=O)O)C(=O)N[C@@H](CO)C(=O)N[C@@H](Cc2ccccc2)C(=O)N[C@H](C(=O)N[C@@H](CC(C)C)C(=O)N[C@@H](CC(C)C)C(=O)N[C@@H](CCC(=O)O)C(=O)N[C@H](C(=O)N[C@H](C(=O)N[C@@H](CCCCN)C(=O)N[C@@H](CCC(N)=O)C(=O)NCC(=O)N[C@@H](CO)C(=O)N[C@@H](CCC(=O)O)C(=O)N[C@@H](Cc2ccccc2)C(=O)N[C@@H](CCC(=O)O)C(=O)N[C@@H](CC(N)=O)C(=O)N[C@H](C(=O)N[C@H](C(=O)N[C@@H](Cc2c[nH]cn2)C(=O)N[C@@H](CCCCN)C(=O)NCCCCCC(=O)N[C@@H](CCCCNC(=O)CCCC[C@@H]2SC[C@@H]3NC(=O)N[C@@H]32)C(N)=O)C(C)C)[C@@H](C)O)[C@@H](C)CC)[C@@H](C)CC)[C@@H](C)CC)C(C)C)NC1=O [CX4-M1]
- Kd (gp120HxBc2 [4]): 200 nM
- Kd (gp120MN): 700 nM

Compound: Fluo-X-G-X-CTRPNNNTRKRIRIQRGPGRAFVTAGKIGNMRQAHC-NH2 (disulfide) [V3HxBc2 I320A, alanine scan variant of V3HxBc2]
- effect of alanine substitution in V3HxBc2 on binding to CX4-M1 [2]: strongly diminished binding

Compound: Fluo-X-G-X-CTRPNNNTRKRARIQRGPGRAFVTIGKIGNMRQAHC-NH2 (disulfide) [V3HxBc2 I307A, alanine scan variant of V3HxBc2]
- effect of alanine substitution in V3HxBc2 on binding to CX4-M1 [2]: strongly diminished binding

Compound: Fluo-X-G-X-CTRPNNNTRK––QRGPGRA–-GKIGNMRQAHC–NH2 (disulfide) [V3HxBc2 Δbeta]
- binding of V3 loop peptide to CX4-M1 (direct ELISA) [2]: complete loss of binding

Compound: Fluo-X-G-X––––––-C^dQRGPGRAC^d–––––––-NH2 (disulfide) [V3HxBc2 turn, truncated variant of V3HxBc2 presenting only the turn region]
- binding of V3 loop peptide to CX4-M1 (direct ELISA) [2]: complete loss of binding
